Experiments:
Mus musculus [1] = experiment: Antinociceptive activity in Kunming mouse model assessed as latency of tail withdrawal at 1.4 nmol/kg, sc measured for 10 mins by tail-flick test relative to control; assay type: functional
Mus musculus [2] = experiment: Antinociceptive activity in Kunming mouse model assessed as latency of tail withdrawal at 1.4 nmol/kg, sc measured for 30 mins by tail-flick test relative to control; assay type: functional; settings: 0.5 h
Mus musculus [3] = experiment: Antinociceptive activity in Kunming mouse model assessed as latency of tail withdrawal at 1.4 nmol/kg, sc measured for 60 mins by tail-flick test relative to control; assay type: functional; settings: 1 h
Mus musculus [4] = experiment: Antinociceptive activity in Kunming mouse model assessed as latency of tail withdrawal at 1.4 nmol/kg, sc measured for 120 mins by tail-flick test relative to control; assay type: functional; settings: 2 h
Mus musculus [5] = experiment: Antinociceptive activity in Kunming mouse model administered subcutaneously by tail-flick test; assay type: functional; settings: route sc
Mus musculus [6] = experiment: Antinociceptive activity in Kunming mouse model administered orally by tail-flick test; assay type: functional; settings: route po
Mus musculus [7] = experiment: Antinociceptive activity in Kunming mouse model administered subcutaneously measured for 5 to 15 mins by acetic acid-induced writhing test; assay type: functional; settings: route sc, time 5-15 min
Mus musculus [8] = experiment: Inhibition of gastrointestinal motility in fasted Kunming mouse model treated subcutaneously for 15 mins followed by charcoal-gum arabic treatment measured after 30 mins; assay type: functional; settings: 0.75 h, route sc, time 45 min
Mu-type opioid receptor [9] = biological target: T1, Mu-type opioid receptor (Homo sapiens, UniProt P35372); experiment: Agonist activity at human MOR expressed in CHO-K1 cells co-expressing G-alpha15 by calcium mobilization assay; assay type: functional, cell-based
[10] = biological target: T2, Kappa-type opioid receptor (Homo sapiens, UniProt P41145); experiment: Agonist activity at human KOR expressed in CHO-K1 cells co-expressing G-alpha15 by calcium mobilization assay; assay type: functional, cell-based; settings: cho-k1
[11] = biological target: T3, Delta-type opioid receptor (Homo sapiens, UniProt P41143); experiment: Agonist activity at human DOR expressed in CHO-K1 cells co-expressing G-alpha15 by calcium mobilization assay; assay type: functional, cell-based
[12] = Stability in mouse plasma assessed as half life at 0.01 mol/L measured for 72 hrs by RP-HPLC analysis; assay type: ADME, cell-free
[13] = Selectivity ratio of ED50 for inhibition of gastrointestinal motility in fasted Kunming mouse model treated subcutaneously to ED50 for antinociceptive activity in Kunming mouse model administered subcutaneously measured for 5 to 15 mins by acetic acid-induced writhing test; assay type: toxicity; settings: in vivo, route sc, read-out: Ratio ED50
[14] = Selectivity ratio of ED50 for inhibition of gastrointestinal motility in fasted Kunming mouse model treated subcutaneously to ED50 for antinociceptive activity in Kunming mouse model administered subcutaneously by tail-flick test; assay type: toxicity; settings: in vivo, route sc, read-out: Ratio ED50
[15] = Toxicity in Kunming mouse model assessed as effect on locomotor co-ordination at 13.8 nmol/kg, sc measured for 10 to 40 mins by rotarod test; assay type: organism-based; settings: in vivo, time 10-40 min
Mus musculus [16] = experiment: Antinociceptive activity in Kunming mouse model assessed as latency of tail withdrawal at 164.1 nmol/kg, sc measured for 10 mins by tail-flick test relative to control; assay type: functional
Mus musculus [17] = experiment: Antinociceptive activity in Kunming mouse model assessed as latency of tail withdrawal at 164.1 nmol/kg, sc measured for 30 mins by tail-flick test relative to control; assay type: functional; settings: 0.5 h
Mus musculus [18] = experiment: Antinociceptive activity in Kunming mouse model assessed as latency of tail withdrawal at 164.1 nmol/kg, sc measured for 60 mins by tail-flick test relative to control; assay type: functional; settings: 1 h
Mus musculus [19] = experiment: Antinociceptive activity in Kunming mouse model assessed as latency of tail withdrawal at 164.1 nmol/kg, sc measured for 120 mins by tail-flick test relative to control; assay type: functional; settings: 2 h
Mu-type opioid receptor [20] = biological target: T1, Mu-type opioid receptor; experiment: Agonist activity at human MOR expressed in CHO-K1 cells co-expressing G-alpha15 by calcium mobilization assay relative to control; assay type: functional, cell-based; settings: filed as agonist
[21] = biological target: T3, Delta-type opioid receptor; experiment: Agonist activity at human DOR expressed in CHO-K1 cells co-expressing G-alpha15 by calcium mobilization assay relative to control; assay type: functional, cell-based; settings: filed as agonist
Mus musculus [22] = experiment: Antinociceptive activity in Kunming mouse model assessed as latency of tail withdrawal at 14157 nmol/kg, sc measured for 10 mins by tail-flick test relative to control; assay type: functional
Mus musculus [23] = experiment: Antinociceptive activity in Kunming mouse model assessed as latency of tail withdrawal at 14157 nmol/kg, sc measured for 30 mins by tail-flick test relative to control; assay type: functional; settings: 0.5 h
Mus musculus [24] = experiment: Antinociceptive activity in Kunming mouse model assessed as latency of tail withdrawal at 14157 nmol/kg, sc measured for 60 mins by tail-flick test relative to control; assay type: functional; settings: 1 h
Mus musculus [25] = experiment: Antinociceptive activity in Kunming mouse model assessed as latency of tail withdrawal at 14157 nmol/kg, sc measured for 120 mins by tail-flick test relative to control; assay type: functional; settings: 2 h
[26] = Toxicity in Kunming mouse model assessed as effect on locomotor co-ordination at 139 nmol/kg, sc measured for 10 to 40 mins by rotarod test; assay type: organism-based; settings: in vivo, time 10-40 min
[27] = biological target: T2, Kappa-type opioid receptor; experiment: Agonist activity at human KOR expressed in CHO-K1 cells co-expressing G-alpha15 by calcium mobilization assay relative to control; assay type: functional, cell-based; settings: filed as agonist
Mus musculus [28] = experiment: Antinociceptive activity in Kunming mouse model assessed as latency of tail withdrawal at 138.9 nmol/kg, sc measured for 10 mins by tail-flick test relative to control; assay type: functional
Mus musculus [29] = experiment: Antinociceptive activity in Kunming mouse model assessed as latency of tail withdrawal at 138.9 nmol/kg, sc measured for 30 mins by tail-flick test relative to control; assay type: functional; settings: 0.5 h
Mus musculus [30] = experiment: Antinociceptive activity in Kunming mouse model assessed as latency of tail withdrawal at 138.9 nmol/kg, sc measured for 60 mins by tail-flick test relative to control; assay type: functional; settings: 1 h
Mus musculus [31] = experiment: Antinociceptive activity in Kunming mouse model assessed as latency of tail withdrawal at 138.9 nmol/kg, sc measured for 120 mins by tail-flick test relative to control; assay type: functional; settings: 2 h
Mus musculus [32] = experiment: Antinociceptive activity in Kunming mouse model assessed as latency of tail withdrawal at 15007 nmol/kg, sc measured for 10 mins by tail-flick test relative to control; assay type: functional
Mus musculus [33] = experiment: Antinociceptive activity in Kunming mouse model assessed as latency of tail withdrawal at 15007 nmol/kg, sc measured for 30 mins by tail-flick test relative to control; assay type: functional; settings: 0.5 h
Mus musculus [34] = experiment: Antinociceptive activity in Kunming mouse model assessed as latency of tail withdrawal at 15007 nmol/kg, sc measured for 60 mins by tail-flick test relative to control; assay type: functional; settings: 1 h
Mus musculus [35] = experiment: Antinociceptive activity in Kunming mouse model assessed as latency of tail withdrawal at 15007 nmol/kg, sc measured for 120 mins by tail-flick test relative to control; assay type: functional; settings: 2 h

T1 sequence (P35372 whole entry): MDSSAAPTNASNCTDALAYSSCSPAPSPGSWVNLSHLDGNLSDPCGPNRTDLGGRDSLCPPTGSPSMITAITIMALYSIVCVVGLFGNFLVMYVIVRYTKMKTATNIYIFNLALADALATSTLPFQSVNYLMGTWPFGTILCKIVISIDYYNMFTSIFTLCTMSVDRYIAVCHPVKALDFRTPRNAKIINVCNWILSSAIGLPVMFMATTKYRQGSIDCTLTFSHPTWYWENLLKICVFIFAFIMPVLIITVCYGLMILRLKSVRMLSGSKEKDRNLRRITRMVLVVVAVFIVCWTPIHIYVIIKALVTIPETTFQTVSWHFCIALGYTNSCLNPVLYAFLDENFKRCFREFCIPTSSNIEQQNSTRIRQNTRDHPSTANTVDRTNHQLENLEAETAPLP
T2 sequence (P41145 whole entry): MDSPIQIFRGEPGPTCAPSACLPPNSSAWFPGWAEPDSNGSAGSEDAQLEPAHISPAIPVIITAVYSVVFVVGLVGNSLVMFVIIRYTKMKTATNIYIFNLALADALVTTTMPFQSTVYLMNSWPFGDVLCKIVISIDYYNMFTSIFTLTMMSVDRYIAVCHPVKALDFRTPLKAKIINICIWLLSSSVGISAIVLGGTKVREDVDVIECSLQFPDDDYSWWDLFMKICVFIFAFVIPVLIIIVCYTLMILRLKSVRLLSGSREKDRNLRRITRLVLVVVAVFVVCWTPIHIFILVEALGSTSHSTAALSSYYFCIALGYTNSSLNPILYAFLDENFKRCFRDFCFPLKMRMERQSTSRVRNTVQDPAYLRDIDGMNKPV
T3 sequence (P41143 whole entry): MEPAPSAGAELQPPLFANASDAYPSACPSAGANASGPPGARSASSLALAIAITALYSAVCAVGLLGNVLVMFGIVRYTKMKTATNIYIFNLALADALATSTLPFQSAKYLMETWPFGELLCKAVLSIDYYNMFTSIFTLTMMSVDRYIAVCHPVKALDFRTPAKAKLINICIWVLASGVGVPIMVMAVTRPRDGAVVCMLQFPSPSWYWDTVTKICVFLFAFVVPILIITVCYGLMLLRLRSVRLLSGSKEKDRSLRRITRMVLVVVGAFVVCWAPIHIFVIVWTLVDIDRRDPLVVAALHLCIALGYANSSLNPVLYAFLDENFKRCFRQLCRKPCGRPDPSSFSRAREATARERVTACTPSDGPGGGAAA

Compound NC(=O)[C@H]1CCCN1C(=O)[C@@H]1CC(=O)NCCCC[C@@H](NC(=O)[C@@H](N)Cc2ccc(O)cc2)C(=O)NCC(=O)N[C@@H](Cc2ccc(F)cc2)C(=O)N1 [listing 1 of 2 here] has an MPE (Mus musculus [1]) of 59.2%, an MPE (Mus musculus [2]) of 93.1% and an MPE (Mus musculus [3]) of 84.1%. It also gave an MPE (Mus musculus [4]) of 34.3%, an ED50 (Mus musculus [5]) of 8e-05 µmol/kg and an ED50 (Mus musculus [6]) of 9e-05 µmol/kg. For the same compound, the ED50 (Mus musculus [7]) was 0.0002 µmol/kg and the ED50 (Mus musculus [8]) was 0.0044 µmol/kg.
In the case of NC(=O)[C@H]1CCCN1C(=O)[C@@H]1CC(=O)NCCCC[C@@H](NC(=O)[C@@H](N)Cc2ccc(O)cc2)C(=O)NCC(=O)N[C@@H](Cc2ccc(F)cc2)C(=O)N1 [listing 2 of 2 here], the EC50 (Mu-type opioid receptor [9]; cho-k1) is reported as 0.9 nM, the EC50 [10] is reported as 92.2 nM and the EC50 ([11]; cho-k1) is reported as 0.6 nM. For the same compound, the half-life at 0.01 mol/L [12] was 53.5 h, the selectivity ratio [13] was 22 and the selectivity ratio [14] was 55. For the same compound, the Activity [15] was “Non-Toxic”.
For NC(=O)[C@@H]1CC(=O)NCCCC[C@@H](NC(=O)[C@@H](N)Cc2ccc(O)cc2)C(=O)NCC(=O)N[C@@H](Cc2ccccc2)C(=O)N1, the MPE (Mus musculus [16]) was 70.7%, the MPE (Mus musculus [17]) was 95.4% and the MPE (Mus musculus [18]) was 71.9%. For the same compound, the MPE (Mus musculus [19]) was 43.8%.
N[C@@H](Cc1ccc(O)cc1)C(=O)N[C@@H]1CCCCNC(=O)C[C@H](C(=O)N2CCC[C@H]2C(=O)O)NC(=O)[C@H](Cc2ccccc2)NC(=O)CNC1=O showed an EC50 (Mu-type opioid receptor [9]) of 3.8 nM, an Emax (Mu-type opioid receptor [20]) of 94.8% and an EC50 [11] of 3.3 nM. The Emax [21] was 109%, the MPE (Mus musculus [22]) was 65% and the MPE (Mus musculus [23]) was 97.4%. For the same compound, the MPE (Mus musculus [24]) was 77%, the MPE (Mus musculus [25]) was 37.3% and the half-life at 0.01 mol/L [12] was 23 h.
With CN1C(=O)CNC(=O)[C@H](NC(=O)[C@@H](N)Cc2ccc(O)cc2)CCCCNC(=O)C[C@@H](C(=O)N2CCC[C@@H]2C(N)=O)NC(=O)[C@@H]1Cc1ccccc1 the EC50 (Mu-type opioid receptor [9]; cho-k1) was 2.5 nM, the EC50 [10] was 505 nM and the EC50 ([11]; cho-k1) was 17.5 nM. For the same compound, the half-life at 0.01 mol/L [12] was 21.1 h, the selectivity ratio [13] was 13 and the selectivity ratio [14] was 54. The Activity [26] was “Non-Toxic”.
Compound NC(=O)[C@H]1CCCCN1C(=O)[C@H]1CC(=O)NCCCC[C@@H](NC(=O)[C@@H](N)Cc2ccc(O)cc2)C(=O)NCC(=O)N[C@@H](Cc2ccccc2)C(=O)N1 has an EC50 (Mu-type opioid receptor [9]; cho-k1) of 4.9 nM, an Emax (Mu-type opioid receptor [20]) of 99.6% and an EC50 [10] of 2280 nM. The Emax [27] was 68.7%, the EC50 ([11]; cho-k1) was 0.2 nM and the Emax [21] was 95.4%. For the same compound, the MPE (Mus musculus [28]) was 59.6%, the MPE (Mus musculus [29]) was 86.8% and the MPE (Mus musculus [30]) was 61.4%. For the same compound, the MPE (Mus musculus [31]) was 26.7%.
With NC(=O)CNC(=O)[C@@H]1CC(=O)NCCCC[C@@H](NC(=O)[C@@H](N)Cc2ccc(O)cc2)C(=O)NCC(=O)N[C@@H](Cc2ccccc2)C(=O)N1 the MPE (Mus musculus [32]) was 73.4%, the MPE (Mus musculus [33]) was 92.5% and the MPE (Mus musculus [34]) was 74.1%. For the same compound, the MPE (Mus musculus [35]) was 43.1%.

— ChEMBL document CHEMBL5532665 (J Med Chem, 2024)
